We go through two compounds from patent US20240270776A1, “PALLADIUM VINYL AND BUTADIENYL COMPOUNDS AS CHEMOTHERAPEUTIC AGENTS” (UNIVERSITÀ CA' FOSCARI VENEZIA, priority 2021, published 2024).

The structures appear in SMILES notation.

Type in all cases: cell-based
Assay [1] deals with MRC-5 (control; lung fibroblasts). Briefly: IC50 on control cell line MRC-5, CellTiter-Glo cell viability. The following applies: MRC-5 normal cells. The procedure: (§1) Example 11: evaluation of the therapeutic efficacy of the compounds of the invention.
(§2) Tests were carried out to determine the inhibitory concentration (IC50) of the compounds of the invention against tumor cell lines and on a control cell line; for comparison, the same tests were carried out with the cisplatin compound.
(§3) The cell lines tested were: A2780 and A2780cis, (ovarian cancer), MDA-MB231 (triple-negative breast cancer) and DLD1 (colon cancer) and MRC-5 (control; lung fibroblasts).
(§4) The stock solutions were obtained in dimethyl sulfoxide for compounds I-X and in H^20 for cisplatin.
(§5) The cells were kept, in accordance with the protocols indicated by the suppliers, at 37° C. in an atmosphere containing 5% carbon dioxide. About 500 cells were plated on 96 different wells and kept under such conditions for 96 hours.
(§6) Cell viability was determined, after treatment of the cells with a 1:1 solution of CellTiter-Glo® (registered trademark of Promega Corp., Madison, Wisconsin, USA) and DPBS, with the Tecan Infinite® M1000 instrument. IC50 values were calculated from dose response curves. The means and standard deviations were obtained from tripled measurements.
For orientation: ATP-based viability assays read luminescence as a measure of living cells.

Assay [2] relates to A2780cis (ovarian cancer). As to the kind of experiment: IC50 against tumor cell line A2780cis, CellTiter-Glo cell viability. The protocol: as §1, §2, §3, §4, §5, §6
A further assay relates to DLD1 (colon cancer). As to the kind of experiment: IC50 against tumor cell line DLD1, CellTiter-Glo cell viability. Conditions: DLD1 cells, 96 hours, mean ± standard deviation of triplicate. The procedure: as §1, §2, §3, §4, §5, §6
Assay [3] has as its system MDA-MB231 (triple-negative breast cancer). Briefly: IC50 against tumor cell line MDA-MB231, CellTiter-Glo cell viability. Conditions: MDA-MB231 cells, 96 hours, mean ± standard deviation of triplicate. The protocol:
as §1, §2, §3, §4, §5, §6

The subject of the next assay is A2780 (ovarian cancer). As to the kind of experiment: IC50 against tumor cell line A2780, CellTiter-Glo cell viability. The following applies: A2780 cells, 96 hours, mean ± standard deviation of triplicate. The procedure:
as §1, §2, §3, §4, §5, §6

On to `COC(=O)/C(C)=C(C(=O)OC)/C(C(=O)OC)=[C](/C(=O)OC)[Pd]1([Cl])[CH]2N(Cc3ccccc3)C=CN2CN2C=CN(Cc3ccccc3)[CH]21` (stereo not shown) [Compound VII], for which the “activity against normal cells (MRC-5), in words” value in assay [1] was “substantially inactive”. Also, the “loss of activity between the two lines (A2780 to A2780cis)” value in assay [2] (A2780 vs A2780cis) was “ca. one order of magnitude”.

Take `N.N.[Cl][Pt][Cl]` [CISPLATIN, cis-diaminodichloroplatin (II)]: the IC50 (commonly the midpoint of a concentration-inhibition curve) came out at 0.63 ± 0.08 µM in the assay on DLD1 (colon cancer); 8 ± 1 µM in assay [1] (96 hours, mean ± standard deviation of triplicate); 27 ± 5 µM in assay [2] (A2780cis cells, 96 hours, mean ± standard deviation of triplicate, read-out: IC50 (μM) A2780 cis); 37 ± 9 µM in assay [3]; 0.4 ± 0.1 µM in the assay on A2780 (ovarian cancer).
